{"source": "paper PMC10781691", "about": "“Vertical pathway inhibition of receptor tyrosine kinases and BAD with synergistic efficacy in triple negative breast cancer” (NPJ Precision Oncology, 2024)", "key": {"[1]": {"test_system": "MDA-MB-231 cells", "experiment": "Annexin V-PI apoptosis flow cytometry", "conditions": "MDA-MB-231, 5 μM", "source_text": "Representative flow cytometry plots of Annexin-V and propidium iodide (PI) stained apoptotic\nor NPB using flow cytometry analysis. Annexin V-FITC staining is indicated on the x axis, and PI staining is indicated on the y axis. The lower left quadrants represent live cells, the lower right quadrants represent early apoptotic cells, the upper left quadrants represent necrotic cells, and the upper right quadrants display late apoptotic cells. Acquisition of Annexin V and PI data are presented as a percentage (%) in each quadrant. Early apoptotic cells are referred to as Annexin- V positive and late apoptotic cells are referred to as Annexin-V and PI double positive."}, "[2]": {"test_system": "BT549 cells", "experiment": "Cell cycle analysis by PI flow cytometry", "assay_type": "cell-based, human", "conditions": "BT549, 5 μM"}, "[3]": {"experiment": "Pharmacokinetics after IV and oral administration", "assay_type": "in vivo, Sprague-Dawley (SD) rats", "design": "AUClast/D: unit not given here", "conditions": "SD rats; for MRT inf: read-out: MRTInf_obs", "protocol": "The pharmacokinetics of NCK were determined via intravenous (IV) and oral administration in Sprague-Dawley (SD) rats (Supplementary Fig. 7).\nSupplementary Figure 7: (A) Plasma concentration of NCK after intravenous (IV, 1 mg/kg) (red) or oral (PO, 10 mg/kg) (blue) administration in SD rats. Results represent the mean ± SD of three animals. (B) Pharmacokinetic parameters of NCK in plasma after IV injection (1 mg/kg) or oral administration (10 mg/kg). AUCinf: Area Under the Plasma Concentration-Time Curve from t=0 to infinity; AUClast: Area Under the Plasma Concentration-Time Curve from t=0 to last measurable positive concentration; AUC_%Extrap_obs: Percent Extrapolated AUC from tlast to infinity; C0: Initial concentration in plasma; Cmax: Peak concentration in plasma; Cl_obs:\nPlasma systemic clearance; F: Absolute oral bioavailability; MRTInf_obs: Mean residence time from t=0 to infinity ;T1/2: Elimination half- life; Tmax: Time of peak concentration in plasma; Vss_obs: Volume of Distribution at Steady- state"}, "[4]": {"test_system": "BT549 cells", "experiment": "AlamarBlue cell viability, 3D Matrigel culture", "assay_type": "cell-based, human"}, "[5]": {"molecular_target": "T1, Recombinant human BAD (Homo sapiens, UniProt Q92934)", "T1 construct": "purchased Novoprotein, Suzhou, China", "T1 sequence (Q92934 whole entry)": "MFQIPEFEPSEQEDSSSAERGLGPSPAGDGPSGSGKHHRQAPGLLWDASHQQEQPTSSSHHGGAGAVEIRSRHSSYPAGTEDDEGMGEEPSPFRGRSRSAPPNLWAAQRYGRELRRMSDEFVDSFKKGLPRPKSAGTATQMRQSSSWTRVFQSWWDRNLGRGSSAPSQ", "experiment": "SPR (BIAcore) with BAD immobilized on sensor chip", "assay_type": "binding", "conditions": "analyte 1.25–160 μM", "protocol": "To compare the binding affinity of NCK and NPB towards BAD, we performed surface plasmon resonance (SPR) measurement by immobilizing BAD protein on a sensor chip with NCK or NPB as analyte. Representative reference-subtracted overlaid sensorgrams and the kinetic parameters are specified in Fig. 2d and Supplementary Fig. 6A. […] Additionally, the pharmacological inhibition of BAD phosphorylation by NCK or NPB in TNBC cells was evaluated. […] Furthermore, the comparative potencies of NPB and NCK were evaluated in eight TNBC cell lines using total cell number assay in 2D culture and cell viability in 3D culture (Supplementary Fig. 6C, D)."}, "[6]": {"test_system": "BT549 cells", "experiment": "Total cell number assay, 2D culture", "assay_type": "cell-based, human", "protocol": "(§1) Fold difference was calculated. Data represent means ± SD (n = 3)."}, "[7]": {"test_system": "MDA-MB-231 cells", "experiment": "Total cell number assay, 2D culture", "assay_type": "cell-based, human", "protocol": "as §1"}, "[8]": {"test_system": "TNBC cell lines", "experiment": "2D total cell number and 3D viability in eight TNBC cell lines", "assay_type": "cell-based, human"}, "[9]": {"test_system": "MDA-MB-231 cells", "experiment": "Cell cycle analysis by PI flow cytometry", "assay_type": "cell-based, human", "conditions": "MDA-MB-231, 5 μM", "description": "Fig. 3 NCK enhances apoptosis and impedes cell-cycle progression in TNBC cells. a Hallmark analysis of the differential expressed genes (DEGs). […] NES, normalized enrichment score. FDR, false discovery rate.\nSupplementary Figure 9: (A) Representative flow cytometry plots using PI staining for DNA\nor NPB using flow cytometry analysis."}, "[10]": {"test_system": "MDA-MB-231 xenografts", "experiment": "Orthotopic xenograft, single drug study", "assay_type": "in vivo, BALB/c-nude mice", "protocol": "Next, the in vivo efficacy of NCK was examined in mice injected orthotopically with MDA-MB-231 cells to form xenografts. When the xenograft volume reached 100 mm^3, mice were randomly grouped and injected i.p. with vehicle, NCK (5 mg/kg q.d.) or NCK (20 mg/kg q.d.) for 21 days."}, "[11]": {"test_system": "BT549 cells", "experiment": "AlamarBlue assay IC50 (Supplementary Fig. 5A)", "assay_type": "cell-based", "conditions": "Homo sapiens, BT-549", "description": "(§2) Ionization potential (I ) 7.21 eV\n(§3) Electron affinity (A) 4.79 eV\n(§4) Chemical potential (μ) 6.00 eV […]\n(§5) using AlamarBlue assay. Data represent means ± SD. (B) Cartoon representation of the compounds NPB (red) and NCK (black) (depicted in ball & stick model) docked to the BAD protein, occupying the same groove with the BAD Serine 99 residue (yellow) nearby. (C) 2D structure representation of compound NPB interacting with BAD protein residues. (D) Cartoon representation of docked compound and molecular electrostatic potential surfaces of NCK. The color code of the compound lies in the range of -0.121e0 to +0.121e0. Red and blue color in the MEP structure point to more electron rich and electron poor regions respectively. (E) The […]"}, "[12]": {"test_system": "MDA-MB-231 cells", "experiment": "AlamarBlue assay IC50 (Supplementary Fig. 5A)", "assay_type": "cell-based", "conditions": "Homo sapiens; MDA-MB-231, AlamarBlue assay", "description": "as §2, §3, §4, §5"}, "[13]": {"test_system": "MDA-MB-231 cells", "experiment": "AlamarBlue cell viability, 3D Matrigel culture", "assay_type": "cell-based, human"}, "[14]": {"test_system": "c-Raf", "design": "method as in SelleckChem", "conditions": "ref SelleckChem; cited from earlier work"}, "[15]": {"test_system": "CSF-1R", "design": "method as in SelleckChem", "conditions": "ref SelleckChem; cited from earlier work"}, "[16]": {"test_system": "c-Kit", "conditions": "read-out: potency on Kit; cited from earlier work"}, "[17]": {"conditions": "Phase I, cited from earlier work"}, "[18]": {"conditions": "Sprague-Dawley, rat, plasma, IV 1 mg/kg"}, "[19]": {"conditions": "Sprague-Dawley, rat, plasma, PO 10 mg/kg"}, "[20]": {"conditions": "NCK 5 and 20 mg/kg q.d. i.p. 21 days"}}, "note": "Where two headings read alike, the source gives them in different places."}
{"smiles": "Oc1ccccc1C(c1cccnc1)N1CCN(c2cccc(Cl)c2Cl)CC1", "note": "(centres unmarked) [NCK, 2-((4-(2,3-dichlorophenyl)piperazin-1-yl)(pyridin-3-yl)methyl) phenol]", "values": [{"measurement": "induction of apoptosis (early and late)", "setting": "[1]", "result": "more potent effect than NPB in inducing apoptosis"}, {"measurement": "decrease in S-phase", "setting": "[2]", "result": 27.12, "unit": "%"}, {"measurement": "increase in G1-phase", "setting": "[2]", "result": 30.43, "unit": "%"}, {"measurement": "AUC_%Extrap_obs", "setting": "[3]; IV 1 mg/kg", "result": 2.51, "unit": "%"}, {"measurement": "AUClast/D", "setting": "[3]; IV 1 mg/kg", "result": 280}, {"measurement": "Vss_obs", "setting": "[3]; IV 1 mg/kg", "result": 5.93, "unit": "L/kg"}, {"measurement": "AUC_%Extrap_obs", "setting": "[3]; PO 10 mg/kg", "result": 2.14, "unit": "%"}, {"measurement": "AUClast/D", "setting": "[3]; PO 10 mg/kg", "result": 105}, {"measurement": "AUC(0-inf)", "setting": "[3]; [18]", "result": 0.288, "unit": "µg·h/mL"}, {"measurement": "AUC(0-t)", "setting": "[3]; [18]", "result": 0.28, "unit": "µg·h/mL"}, {"measurement": "C0", "setting": "[3]; [18]", "result": 0.554, "unit": "µg/mL"}, {"measurement": "half-life", "setting": "[3]; [18]", "result": 3.35, "unit": "h"}, {"measurement": "MRT inf", "setting": "[3]; [18]", "result": 1.72, "unit": "h"}, {"measurement": "bioavailability", "setting": "[3]; Sprague-Dawley, rat, plasma, PO 10 mg/kg vs IV 1 mg/kg, read-out: F (absolute oral bioavailability)", "result": 37.2, "unit": "%"}, {"measurement": "AUC(0-inf)", "setting": "[3]; [19]", "result": 1.07, "unit": "µg·h/mL"}, {"measurement": "AUC(0-t)", "setting": "[3]; [19]", "result": 1.05, "unit": "µg·h/mL"}, {"measurement": "Cmax", "setting": "[3]; [19]", "result": 0.346, "unit": "µg/mL"}, {"measurement": "Tmax", "setting": "[3]; [19]", "result": 0.33, "unit": "h"}, {"measurement": "half-life", "setting": "[3]; [19]", "result": 2.68, "unit": "h"}, {"measurement": "MRT inf", "setting": "[3]; [19]", "result": 4, "unit": "h"}, {"measurement": "clearance", "setting": "[3]; Sprague-Dawley, rat, IV 1 mg/kg, plasma, read-out: Cl_obs (clearance)", "result": 3.5, "unit": "L/h/kg"}, {"measurement": "growth in 3D Matrigel", "setting": "[4]; BT549, 5 μM each", "result": "reduced cell growth in 3D Matrigel"}, {"measurement": "fold IC50 difference NCK vs NPB", "setting": "[4]; BT549, 3D Matrigel", "result": "~ 8 fold"}, {"measurement": "IC50", "setting": "[4]; Homo sapiens, BT-549, BT549, 3D Matrigel, AlamarBlue", "result": 0.309, "unit": "µM"}, {"measurement": "Kd", "setting": "[5]; read-out: Affinity (KD)", "result": 0.0481, "unit": "µM"}, {"measurement": "kon", "setting": "[5]; read-out: Association (Ka)", "result": 111000, "unit": "M⁻¹ s⁻¹"}, {"measurement": "fold IC50 difference NCK vs NPB", "setting": "[6]; BT549, 2D", "result": "~ 2 fold"}, {"measurement": "IC50", "setting": "[6]; Homo sapiens, BT-549, BT549, 2% FBS", "result": 1.7, "unit": "µM"}, {"measurement": "IC50", "setting": "[7]; Homo sapiens, MDA-MB-231, 2% FBS", "result": 1.01, "unit": "µM"}, {"measurement": "fold IC50 difference NCK vs NPB", "setting": "[7]; MDA-MB-231, 2D", "result": "~ 3 fold"}, {"measurement": "potency vs NPB in reducing 2D and 3D cell viability", "setting": "[8]", "result": "more potent than NPB"}, {"measurement": "decrease in S-phase", "setting": "[9]", "result": 15.68, "unit": "%"}, {"measurement": "increase in G1-phase", "setting": "[9]", "result": 17.75, "unit": "%"}, {"measurement": "xenograft volume and weight vs vehicle", "setting": "[10]; NCK 5 mg/kg q.d. i.p. 21 days", "result": "significantly reduced xenograft volume"}, {"measurement": "xenograft volume and weight vs vehicle", "setting": "[10]; NCK 20 mg/kg q.d. i.p. 21 days", "result": "significantly reduced xenograft volume"}, {"measurement": "MKI67 positivity in xenografts", "setting": "[10]; [20]", "result": "decreased MKI67 positivity"}, {"measurement": "TUNEL scores in xenografts", "setting": "[10]; [20]", "result": "increased TUNEL scores"}, {"measurement": "body weight vs vehicle", "setting": "[10]; [20]", "result": "no significant change in body weight"}, {"measurement": "pBADSer99 in resected xenografts (IHC) vs vehicle", "setting": "[10]; [20]", "result": "significantly reduced pBADSer99"}, {"measurement": "IC50", "setting": "[11]", "result": "12.1 ± 1.36", "unit": "µM"}, {"measurement": "IC50", "setting": "[12]", "result": "4.94 ± 2.8", "unit": "µM"}, {"measurement": "IC50", "setting": "[13]; Homo sapiens, MDA-MB-231, 3D Matrigel, AlamarBlue", "result": 0.239, "unit": "µM"}, {"measurement": "growth in 3D Matrigel", "setting": "[13]; MDA-MB-231, 5 μM each", "result": "reduced cell growth in 3D Matrigel"}, {"measurement": "fold IC50 difference NCK vs NPB", "setting": "[13]; MDA-MB-231, 3D Matrigel", "result": "~ 6 fold"}]}
{"smiles": "O=C(Nc1ccc(OC(F)(F)F)cc1)c1sccc1NCc1ccnc2ccccc12", "note": "[OSI-930]", "values": [{"measurement": "IC50", "setting": "[14]", "result": 0.041, "unit": "µM"}, {"measurement": "IC50", "setting": "[15]", "result": 0.015, "unit": "µM"}, {"measurement": "IC50", "setting": "[16]", "result": 0.08, "unit": "µM"}, {"measurement": "MTD, BID", "setting": "[17]; ref NCT00513851", "result": 500, "unit": "mg"}, {"measurement": "MTD, QD", "setting": "[17]; ref NCT00513851", "result": 1600, "unit": "mg"}, {"measurement": "MTD of OSI-930 BID with 150 mg erlotinib QD", "setting": "[17]; ref NCT00603356", "result": 200, "unit": "mg"}]}
